tested on: pGL3-NFAT-luc-HEK293 (Cl.3) cells; assay: not given; assay type: cell-based; conditions: not given
Excerpt: BL (Basal Levels) = 100% RLU. Different lowercase letters (a,b,c) on top of bars indicate significant differences (p < 0.05) between concentrations, assessed by one-way ANOVA followed by Tukey’s Multiple Comparison Test (GraphPad Prism version 5.00).

SMILES | doses toxic for the cells and/or inhibiting their stimulation [mM]
OC[C@H]1OC(O)[C@H](O)[C@@H](O)[C@@H]1O (stereo partly drawn) [D-Glucose] | 300 to 500

target: T1, saT1R2b/R3 (Sparus aurata, UniProt A0A671TG56+A0A671VZB3); assay: saT1R2b/R3 heterodimer transiently transfected in stable pGL3-NFAT-luc-HEK293 (Cl.3) cells, luciferase reporter; assay type: cell-based; conditions: as molarity; decimal comma
T1 sequence (A0A671TG56 20-821): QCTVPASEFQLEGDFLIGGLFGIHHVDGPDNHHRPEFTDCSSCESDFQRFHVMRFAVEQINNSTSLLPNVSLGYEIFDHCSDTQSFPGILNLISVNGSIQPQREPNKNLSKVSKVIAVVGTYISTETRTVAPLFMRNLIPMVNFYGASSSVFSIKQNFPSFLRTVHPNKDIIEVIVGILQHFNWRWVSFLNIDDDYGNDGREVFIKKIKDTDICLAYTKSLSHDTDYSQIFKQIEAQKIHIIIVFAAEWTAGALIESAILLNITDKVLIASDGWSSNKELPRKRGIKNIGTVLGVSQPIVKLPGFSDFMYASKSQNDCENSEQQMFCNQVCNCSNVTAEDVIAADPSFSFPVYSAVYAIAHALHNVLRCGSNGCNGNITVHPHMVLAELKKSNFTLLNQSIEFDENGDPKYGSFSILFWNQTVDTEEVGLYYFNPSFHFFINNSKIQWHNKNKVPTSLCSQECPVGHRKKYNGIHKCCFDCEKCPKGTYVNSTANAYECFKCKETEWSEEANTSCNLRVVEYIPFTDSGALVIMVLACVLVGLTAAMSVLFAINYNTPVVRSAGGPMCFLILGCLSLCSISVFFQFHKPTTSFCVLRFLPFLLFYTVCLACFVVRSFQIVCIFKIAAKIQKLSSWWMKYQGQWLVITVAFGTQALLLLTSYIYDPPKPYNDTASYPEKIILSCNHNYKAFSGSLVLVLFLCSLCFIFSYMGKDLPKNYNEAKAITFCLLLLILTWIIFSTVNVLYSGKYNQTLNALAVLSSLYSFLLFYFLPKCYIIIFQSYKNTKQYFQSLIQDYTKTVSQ
T1 sequence (A0A671VZB3 24-860): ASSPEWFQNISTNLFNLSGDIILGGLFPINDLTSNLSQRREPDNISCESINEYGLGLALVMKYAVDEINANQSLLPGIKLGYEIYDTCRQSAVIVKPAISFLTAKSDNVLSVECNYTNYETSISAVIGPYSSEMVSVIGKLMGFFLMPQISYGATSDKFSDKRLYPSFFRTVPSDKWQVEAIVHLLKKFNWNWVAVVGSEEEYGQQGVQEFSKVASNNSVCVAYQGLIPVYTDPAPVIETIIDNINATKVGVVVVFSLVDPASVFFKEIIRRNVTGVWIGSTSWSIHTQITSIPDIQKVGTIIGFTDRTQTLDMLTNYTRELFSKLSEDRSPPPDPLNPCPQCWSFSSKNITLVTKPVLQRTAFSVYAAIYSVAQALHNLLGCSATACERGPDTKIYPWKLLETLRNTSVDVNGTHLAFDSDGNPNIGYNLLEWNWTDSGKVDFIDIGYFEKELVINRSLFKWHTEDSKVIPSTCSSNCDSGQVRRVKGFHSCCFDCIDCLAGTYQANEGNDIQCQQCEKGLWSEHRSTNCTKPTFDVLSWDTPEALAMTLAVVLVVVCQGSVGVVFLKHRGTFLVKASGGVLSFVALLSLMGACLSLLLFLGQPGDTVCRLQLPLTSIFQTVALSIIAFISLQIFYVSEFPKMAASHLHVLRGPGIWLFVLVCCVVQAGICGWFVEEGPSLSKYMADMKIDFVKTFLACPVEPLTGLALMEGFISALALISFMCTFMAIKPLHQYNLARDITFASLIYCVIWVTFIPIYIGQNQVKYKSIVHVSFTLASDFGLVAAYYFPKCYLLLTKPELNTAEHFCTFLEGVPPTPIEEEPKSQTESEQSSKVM
Excerpt: Figure 6 Amino acid Log-dose response curves of activation in heterologous co-transfected (Cl.3) cells with saT1R1/3 (green dots), saT1R2a/3 (red squares) and saT1R2b/3 (black triangles) heterodimers. Evaluation of L-AA responses was based on the RLU mean ± SEM of four independent determinations normalized to the mean response of the same transfections stimulated with reduced assay medium (Basal Medium Eagle w/o L-glutamate (BME) + 1% FBS), and expressed as the percentage relative to basal levels (BL).
HEK293 cells were cultured in standard medium DMEM (Gibco, Thermo Fisher, Saint Louis, MO, USA) containing 10% FBS, penicillin (100 U/mL) and streptomycin ([…]) at 37 °C, with a humidified atmosphere at 5% CO2. pGL3-NFAT-luc-HEK293 stable clones were generated by co-transfections of pGL3-NFAT-luc and tgCMV/HyTK plasmids (50:1), the latter harboring the hygromycin phosphotransferase gene, using Lipofectamine LTX according to supplier’s protocols (Thermo Fisher, Saint Louis, MO, USA). Initially, HEK293 cells were selected using DMEM containing 400 μg/mL hygromycin B (Sigma, Darmstadt, Germany) in 24-well plates for two weeks; 24 colonies were further grown out in 96-well plates under reduced hygromycin selection (200 µg/mL) for three weeks. Potentially resistant NFAT-luc-HEK293 clones (n = 22) were validated after incubation in assay medium (DMEM + 1% FBS) containing PMA or Ionomycin (Sigma, Darmstadt, Germany) for 18 h (triplicates, 50,000 cells/well). Luciferase activity was quantified with ONE-Glo™ EX Reagent Kit (Promega, Madison, WI, USA) using a 96-microplate TECAN reader (Trading AG, Switzerland).
saT1Rs (saT1R1, saT1R2a, saT1R2b saT1R3) and saGαi1-2 genes were RT-PCR amplified using 5’ and 3’ flanking primers carrying HindIII and XhoI restriction sites, respectively. Gel-purified fragments were cloned into pGEM-T Easy vectors, re-sequenced, digested and subcloned into pcDNA™3 (Invitrogen, Carlsbad, CA, USA). Effective saT1R cloning into pcDNA™3 was further verified by HindIII/XhoI digestion. Transient co-transfections were done in 6-well plates (confluence ~70–80%) using 100 μL of reduced serum medium (Opti-MEM, Gibco, Thermo Fisher, Saint Louis, MO, USA) containing 150 ng of each selected pcDNA™3 construct, 1:10 charge ratio of Enhanced Green Fluorescent expressing construct (EGFP; positive control), and pBluescript II SK (+) vector DNA (Addgene, Watertown, MA, USA) up to 1 µg of totally transfected DNA. Following 24 h incubation, cells were washed with fresh standard medium and plated in polylysine treated plates for additional 24 h. Cells were then stimulated with L-AAs and sugar compounds for 18 h in a reduced assay medium (BME w/o L-glutamate; Gibco, Thermo Fisher, Saint Louis, MO, USA) + 1% FBS), to prevent unspecific Ca^2+/NFAT signaling activation and potential saT1R desensitization. All L-AAs and sugars used for in vitro experiments were obtained from Merck KGaA (Darmstadt, Germany).

SMILES | T1R2b/R3 [MSD] maximum stimulation dose
C[C@H](N)C(=O)O [Ala, Alanine] | 1,00 × 10^-1 M
N=C(N)NCCC[C@H](N)C(=O)O [Arg, Arginine] | 1,00 × 10^-5 M
NC(=O)C[C@H](N)C(=O)O [Asn, Asparagine] | 1,00 × 10^-1 M
N[C@@H](CC(=O)O)C(=O)O [Asp, Aspartic acid] | 1,00 × 10^-5 M
N[C@@H](CS)C(=O)O [Cys, Cysteine] | 1,00 × 10^-4 M
NC(=O)CC[C@H](N)C(=O)O [Gln, Glutamine] | 1,00 × 10^-1 M
N[C@@H](CCC(=O)O)C(=O)O [Glu, Glutamic acid] | 1,00 × 10^-2 M
NCC(=O)O [Gly, Glycine] | 1,00 × 10^-1 M
N[C@@H](Cc1c[nH]cn1)C(=O)O [His, Histidine] | 1,00 × 10^-5 M
CC[C@H](C)[C@H](N)C(=O)O [Ile, Isoleucine] | 1,00 × 10^-1 M
CC(C)C[C@H](N)C(=O)O [Leu, Leucine] | 1,00 × 10^-1 M
NCCCC[C@H](N)C(=O)O [Lys, Lysine] | 1,00 × 10^-3 M
CSCC[C@H](N)C(=O)O [Met, Methionine] | 1,00 × 10^-1 M
N[C@@H](Cc1ccccc1)C(=O)O [Phe, Phenylalanine] | 1,00 × 10^-2 M
O=C(O)[C@@H]1CCCN1 [Pro, Proline] | 1,00 × 10^-1 M
N[C@@H](CO)C(=O)O [Ser, Serine] | 1,00 × 10^-1 M
C[C@@H](O)[C@H](N)C(=O)O [Thr, Threonine] | 1,00 × 10^-1 M
N[C@@H](Cc1c[nH]c2ccccc12)C(=O)O [Trp, Tryptophan] | 1,00 × 10^-3 M
N[C@@H](Cc1ccc(O)cc1)C(=O)O [Tyr, Tyrosine] | 1,00 × 10^-3 M
CC(C)[C@H](N)C(=O)O [Val, Valine] | 1,00 × 10^-1 M

same assay, conditions: saT1R2b/R3; tested 1–500 mM

concentration with significant activation [mM] | SMILES
200 | OC[C@H]1OC(O)[C@H](O)[C@@H](O)[C@@H]1O (stereo partly drawn) [D-Glucose]

Reference: paper PMC7594079, “Insights into the Function and Evolution of Taste 1 Receptor Gene Family in the Carnivore Fish Gilthead Seabream (Sparus aurata)” (International Journal of Molecular Sciences, 2020)
